Assay results reported in patent publication US11766425B2, “Antibiotic combination therapies” (BIOVERSYS AG, priority 2019, dated 2023).

Columns and labels:
Type in all cases: cell-based, Acinetobacter baumannii
A. baumannii IHMA1013816 = test: broth microdilution checkerboard MIC/synergy; conditions: strain IHMA1013816; for MICs alone: antibiotic alone
Procedure: (§1) Checkerboards were performed according to the CLSI parameters used for microbroth dilution MIC5. CA-MHB, iron-depleted CA-MHB (ID-CA-MHB) or RPMI supplemented with 10% FCS medium were used as specified and ID-CA-MHB was prepared according to CLSI guidelines. […] FICI is calculated as follows: […]

A. baumannii IHMA919656 = test: broth microdilution checkerboard MIC/synergy; conditions: strain IHMA919656; for MICs alone: antibiotic alone
Procedure: as §1

A. baumannii 401046-18 = test: broth microdilution checkerboard MIC/synergy; conditions: strain 401046-18; for MICs alone: antibiotic alone
Procedure: as §1

A. baumannii UNT238-1 = test: broth microdilution checkerboard MIC/synergy; conditions: strain UNT238-1; for MICs alone: antibiotic alone
Procedure: as §1

A. baumannii 401255-18 = test: broth microdilution checkerboard MIC/synergy; conditions: strain 401255-18; for MICs alone: antibiotic alone
Procedure: as §1

A. baumannii 402292-17 = test: broth microdilution checkerboard MIC/synergy; conditions: strain 402292-17; for MICs alone: antibiotic alone
Procedure: as §1

A. baumannii IHMA863866 = test: broth microdilution checkerboard MIC/synergy; conditions: strain IHMA863866; for MICs alone: antibiotic alone
Procedure: as §1

A. baumannii UNT087-1 = test: broth microdilution checkerboard MIC/synergy; conditions: strain UNT087-1; for MICs alone: antibiotic alone
Procedure: as §1

A. baumannii IHMA690517 = test: broth microdilution checkerboard MIC/synergy; conditions: strain IHMA690517; for MICs alone: antibiotic alone
Procedure: as §1

A. baumannii 402608-17 = test: broth microdilution checkerboard MIC/synergy; conditions: strain 402608-17; for MICs alone: antibiotic alone
Procedure: as §1

A. baumannii HUMC1 = test: broth microdilution checkerboard MIC/synergy; conditions: strain HUMC1, antibiotic alone
Procedure: as §1

A. baumannii UNT091-1 = test: broth microdilution checkerboard MIC/synergy; conditions: strain UNT091-1, antibiotic alone
Procedure: as §1

A. baumannii UNT191-1 = test: broth microdilution checkerboard MIC/synergy; conditions: strain UNT191-1; for MICs alone: antibiotic alone
Procedure: as §1

A. baumannii IHMA867231 = test: broth microdilution checkerboard MIC/synergy; conditions: strain IHMA867231; for MICs alone: antibiotic alone
Procedure: as §1

A. baumannii UNT239-1 = test: broth microdilution checkerboard MIC/synergy; conditions: strain UNT239-1; for MICs alone: antibiotic alone
Procedure: as §1

[1] = system: A. baumannii LAC-4 strain; test: broth microdilution checkerboard MIC/synergy; conditions: for MICs alone: strain LAC-4, antibiotic alone
Procedure: as §1
The checkerboards were performed in CA-MHB or ID-CA-MHB for cefiderocol.

[2] = system: panel of MDR clinical isolates of A. baumannii; conditions: CA-MHB
Procedure: as §1

[3] = rifabutin/colistin checkerboard, CA-MHB
[4] = rifampicin/colistin checkerboard
[5] = rifabutin/colistin in combination, CA-MHB
[6] = rifampicin/colistin in combination
[7] = second antibiotic in combination with rifabutin, LAC-4, CA-MHB

colistin
MICs alone (A. baumannii IHMA1013816; [3]): 16 mg/L
MICs alone (A. baumannii IHMA1013816; [4]): 32 mg/L
MICs combi (A. baumannii IHMA1013816; [5]): <0.5 mg/L
MICs combi (A. baumannii IHMA1013816; [6]): <0.5 mg/L
MICs alone (A. baumannii IHMA919656; [3]): 512 mg/L
MICs alone (A. baumannii IHMA919656; [4]): 512 mg/L
MICs combi (A. baumannii IHMA919656; [5]): 1 mg/L
MICs combi (A. baumannii IHMA919656; [6]): 1 mg/L
MICs alone (A. baumannii 401046-18; [3]): 0.5 mg/L
MICs alone (A. baumannii 401046-18; [4]): 0.25 mg/L
MICs combi (A. baumannii 401046-18; [6]): 0.06 mg/L
MICs alone (A. baumannii UNT238-1; [3]): 0.25 mg/L
MICs alone (A. baumannii UNT238-1; [4]): 0.5 mg/L
MICs combi (A. baumannii UNT238-1; [5]): 0.06 mg/L
MICs alone (A. baumannii 401255-18; [3]): 0.25 mg/L
MICs alone (A. baumannii 401255-18; [4]): 0.25 mg/L
MICs combi (A. baumannii 401255-18; [5]): 0.06 mg/L
MICs combi (A. baumannii 401255-18; [6]): 0.06 mg/L
MICs alone (A. baumannii 402292-17; [3]): 1 mg/L
MICs alone (A. baumannii 402292-17; [4]): 0.25 mg/L
MICs combi (A. baumannii 402292-17; [5]): 0.25 mg/L
MICs alone (A. baumannii IHMA863866; [3]): >512 mg/L
MICs alone (A. baumannii IHMA863866; [4]): 512 mg/L
MICs combi (A. baumannii IHMA863866; [5]): 1 mg/L
MICs combi (A. baumannii IHMA863866; [6]): 0.5 mg/L
MICs alone (A. baumannii UNT087-1; [3]): 1 mg/L
MICs alone (A. baumannii UNT087-1; [4]): 0.5 mg/L
MICs combi (A. baumannii UNT087-1; [5]): 0.25 mg/L
MICs alone (A. baumannii IHMA690517; [3]): 16 mg/L
MICs alone (A. baumannii IHMA690517; [4]): 16 mg/L
MICs combi (A. baumannii IHMA690517; [5]): 0.5 mg/L
MICs combi (A. baumannii IHMA690517; [6]): <0.5 mg/L
MICs alone (A. baumannii 402608-17; [3]): 1 mg/L
MICs alone (A. baumannii 402608-17; [4]): 1 mg/L
MICs combi (A. baumannii 402608-17; [5]): 0.25 mg/L
MICs combi (A. baumannii 402608-17; [6]): 0.25 mg/L
MICs alone (A. baumannii HUMC1; [3]): 0.5 mg/L
MICs alone (A. baumannii HUMC1; [4]): 0.5 mg/L
MICs alone (A. baumannii UNT091-1; [3]): 0.5 mg/L
MICs alone (A. baumannii UNT091-1; [4]): 0.5 mg/L
MICs alone (A. baumannii UNT191-1; [3]): 2 mg/L
MICs alone (A. baumannii UNT191-1; [4]): 1 mg/L
MICs combi (A. baumannii UNT191-1; [5]): 0.5 mg/L
MICs combi (A. baumannii UNT191-1; [6]): 0.25 mg/L
MICs alone (A. baumannii IHMA867231; [3]): 32 mg/L
MICs alone (A. baumannii IHMA867231; [4]): 32 mg/L
MICs combi (A. baumannii IHMA867231; [5]): 4 mg/L
MICs combi (A. baumannii IHMA867231; [6]): 4 mg/L
MICs alone (A. baumannii UNT239-1; [3]): 1 mg/L
MICs alone (A. baumannii UNT239-1; [4]): 1 mg/L
MICs combi (A. baumannii UNT239-1; [5]): 0.25 mg/L
MICs combi (A. baumannii UNT239-1; [6]): 0.25 mg/L
FICI [1, 7]: 0.254
Interpretation [1, 7]: synergy (synergy (FICI≤0.5))
MICs alone [1, 3]: 0.5 mg/L
MICs alone [1, 4]: 0.5 mg/L
reduction of colistin MICs ([2]; in combination with rifabutin, colistin resistant strains): at least 16 fold
strains on which synergy was observed ([2]; rifabutin with colistin, 16 MDR isolates): 100%
